# From US9662390B2, “Use of opioid antagonists to attenuate endothelial cell proliferation and migration” (THE UNIVERSITY OF CHICAGO, priority 2005, dated 2017)
# “Also recorded” adds a separate entry of the source.
# Key:
# RhoA = RhoA activation assay (RBD beads, anti-RhoA immunoblot); assay type: cell-based, human; settings: for agonist-stimulated RhoA activation: endothelial cells
# Source text: The supernatant is removed and the RBD-beads with the GTP-bound form of RhoA bound are washed extensively.
# VEGF receptor 2 (Flk-1) = experiment: Tyrosine phosphorylation of VEGF receptor 2, immunoprecipitation and immunoblot; assay type: cell-based, human; settings: HPMVEC
# VEGF receptor 1 (Flt-1) = experiment: Tyrosine phosphorylation of VEGF receptor 1, immunoprecipitation and immunoblot; assay type: cell-based, human; settings: HPMVEC
# PDGF receptor = experiment: Tyrosine phosphorylation of the PDGF receptor in EC (Example 9); assay type: cell-based, human
# S1P3 receptor = experiment: Tyrosine phosphorylation of the S1P3 receptor in EC (Example 9); assay type: cell-based, human
# VEGF receptor = experiment: Tyrosine phosphorylation of the VEGF receptor in EC (Example 9); assay type: cell-based, human
# [1] = test system: human pulmonary microvascular endothelial cells (HPMVEC); experiment: Human pulmonary microvascular EC migration assay (Transwell); assay type: cell-based; settings: for agonist-induced HPMVEC migration: agonist 100 nM, 18 hours
# [2] = test system: human pulmonary microvascular endothelial cells (HPMVEC); experiment: Human pulmonary microvascular EC proliferation assay (CellTiter96 MTS); assay type: cell-based; settings: for agonist-induced HPMVEC proliferation: agonist 100 nM, 24 h, serum-free media
# [3] = white crystalline powder, typically the bromide salt; cited from earlier work
# tumor = experiment: Human cancer patients: tumor growth and angiogenesis; assay type: in vivo; settings: antagonist orally 5 mg/kg/day, eight weeks, with opioid and bevacizumab (Avastin)
# [4] = in vivo; cited from earlier work
# tumors = experiment: Tumor-bearing mice: tumor growth and angiogenesis; assay type: in vivo; settings: eight weeks; for angiogenesis and tumor growth, combination of opioid, opioid antagonist and anticancer agent compared to the other groups: antagonist 5 mg/kg/day, morphine 0.5 mg/kg/day, bevacizumab (Avastin) 5 mg/kg every 14 days; for tumor growth and angiogenesis compared to controls or opioid alone: antagonist orally 5 mg/kg/day with morphine orally 0.5 mg/kg/day
# mu opioid receptor = mu opioid receptor (Homo sapiens, UniProt P35372); experiment: Serine/threonine phosphorylation of the mu opioid receptor in EC (Example 9); assay type: cell-based
# mu opioid receptor, sequence (P35372 whole entry): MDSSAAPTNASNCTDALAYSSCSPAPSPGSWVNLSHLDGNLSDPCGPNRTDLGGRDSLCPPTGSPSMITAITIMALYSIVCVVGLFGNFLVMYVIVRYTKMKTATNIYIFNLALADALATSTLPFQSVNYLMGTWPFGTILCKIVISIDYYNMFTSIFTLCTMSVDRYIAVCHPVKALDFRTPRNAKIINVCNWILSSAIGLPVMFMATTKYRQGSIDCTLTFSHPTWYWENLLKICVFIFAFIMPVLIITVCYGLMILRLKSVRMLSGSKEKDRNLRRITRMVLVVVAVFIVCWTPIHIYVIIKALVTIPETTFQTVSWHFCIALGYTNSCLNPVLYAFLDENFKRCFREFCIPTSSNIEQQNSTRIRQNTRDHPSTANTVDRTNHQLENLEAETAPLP
# [5] = sickle cell disease; cited from earlier work
# F11 c-1 = settings: T241 fibrosarcoma; no increase in morphine treated KO mice; cited from earlier work
# [6] = test system: morphine induced angiogenesis; settings: xenograft tumor model in mice; cited from earlier work
# [7] = MNTX 100 nM (0.1 μM, 1 hour pretreatment), induced by MS/morphine, DAMGO, VEGF, in Example 9 also S1P and PDGF
compound,measurement,setting,value
"C[C@@H](NC(=O)[C@@H](N)Cc1ccc(O)cc1)C(=O)NCC(=O)N(C)[C@@H](Cc1ccccc1)C(=O)NCCO [DAMGO, [D-Ala^2, N-MePhe^4, Gly^5-ol] enkephalin]",agonist-stimulated RhoA activation,RhoA,stimulate RhoA activation
same,agonist-induced tyrosine phosphorylation of VEGF receptor 2 (Flk-1),VEGF receptor 2 (Flk-1),induce tyrosine phosphorylation
same,agonist-induced tyrosine phosphorylation of VEGF receptor 1 (Flt-1),VEGF receptor 1 (Flt-1),induce tyrosine phosphorylation
same,agonist-induced tyrosine phosphorylation of the PDGF receptor,PDGF receptor,induced tyrosine phosphorylation
same,agonist-induced tyrosine phosphorylation of the S1P3 receptor,S1P3 receptor,induced tyrosine phosphorylation
same,agonist-induced tyrosine phosphorylation of the VEGF receptor,VEGF receptor,induced tyrosine phosphorylation
same,agonist-induced HPMVEC migration,[1],induce HPMVEC migration; also recorded: induced
same,agonist-induced HPMVEC proliferation,[2],stimulate HPMVEC proliferation; also recorded: induced proliferation
"C[N+]1(CC2CC2)CCC23c4c5ccc(O)c4OC2C(=O)CCC3(O)C1C5 (stereo not shown) [MNTX, N-methylnaltrexone]",effect on agonist-stimulated RhoA activation,"RhoA; induced by morphine/MS, DAMGO, VEGF, in Example 9 also S1P and PDGF",inhibited; also recorded: attenuated
same,effect on MS and DAMGO induced tyrosine phosphorylation of VEGF receptor 2,VEGF receptor 2 (Flk-1),blocked
same,effect on VEGF induced tyrosine phosphorylation of VEGF receptor 2,VEGF receptor 2 (Flk-1),attenuates
same,solubility in water,[3],freely soluble in water
same,effect on MS and DAMGO induced tyrosine phosphorylation of VEGF receptor 1,VEGF receptor 1 (Flt-1),blocked
same,effect on VEGF induced tyrosine phosphorylation of VEGF receptor 1,VEGF receptor 1 (Flt-1),attenuates
same,"angiogenesis and tumor growth, combination of opioid, opioid antagonist and anticancer agent compared to the other groups",tumor,enhanced result
same,effect of MNTX pretreatment on agonist-induced PDGF receptor phosphorylation,PDGF receptor,attenuated
same,effect of MNTX pretreatment on agonist-induced S1P3 receptor phosphorylation,S1P3 receptor,attenuated
same,effect of MNTX pretreatment on agonist-induced VEGF receptor phosphorylation,VEGF receptor,attenuated
same,tolerability of doses that maintain plasma MNTX between about 25 and 150 ng/mL,[4],well tolerated
same,inhibition of agonist-induced HPMVEC migration,[1]; [7],inhibited
same,"angiogenesis and tumor growth, combination of opioid, opioid antagonist and anticancer agent compared to the other groups",tumors,enhanced result
same,tumor growth and angiogenesis compared to controls or opioid alone,tumors,reduction in tumor growth and angiogenesis
same,inhibition of agonist-induced HPMVEC proliferation,[2]; [7],attenuated; also recorded: inhibited
same,effect of MNTX pretreatment on agonist-induced mu opioid receptor phosphorylation,mu opioid receptor,attenuated
"CCCCCCCCCCCCC/C=C/[C@@H](O)[C@@H](N)COP(=O)(O)O [SIP, sphingosine 1-phosphate]",agonist-stimulated RhoA activation,RhoA,"activation of the cytoskeletal regulatory small G-protein, RhoA"
same,agonist-induced HPMVEC migration,[1],induced
same,agonist-induced HPMVEC proliferation,[2],induced proliferation
same,agonist-induced serine/threonine phosphorylation of the mu opioid receptor,mu opioid receptor,induced serine/threonine phosphorylation
C[C@H]1CN(C[C@H](Cc2ccccc2)C(=O)NCC(=O)O)CC[C@@]1(C)c1cccc(O)c1 [alvimopan],"angiogenesis and tumor growth, combination of opioid, opioid antagonist and anticancer agent compared to the other groups",tumor,enhanced result
same,"angiogenesis and tumor growth, combination of opioid, opioid antagonist and anticancer agent compared to the other groups",tumors,enhanced result
same,tumor growth and angiogenesis compared to controls or opioid alone,tumors,reduction in tumor growth and angiogenesis
CN1CC[C@]23c4c5ccc(O)c4O[C@H]2[C@@H](O)C=C[C@H]3[C@H]1C5 [morphine],agonist-stimulated RhoA activation,RhoA,stimulate RhoA activation
same,agonist-stimulated RhoA activation,RhoA; listed as MS,stimulate RhoA activation
same,agonist-induced tyrosine phosphorylation of VEGF receptor 2 (Flk-1),VEGF receptor 2 (Flk-1),induce tyrosine phosphorylation
same,proliferative retinopathy,[5],induced proliferative retinopathy
same,agonist-induced tyrosine phosphorylation of VEGF receptor 1 (Flt-1),VEGF receptor 1 (Flt-1),induce tyrosine phosphorylation
same,agonist-induced tyrosine phosphorylation of the PDGF receptor,PDGF receptor,induced tyrosine phosphorylation
same,agonist-induced tyrosine phosphorylation of the S1P3 receptor,S1P3 receptor,induced tyrosine phosphorylation
same,agonist-induced tyrosine phosphorylation of the VEGF receptor,VEGF receptor,induced tyrosine phosphorylation
same,agonist-induced HPMVEC migration,[1],induced
same,agonist-induced HPMVEC migration,[1]; listed as MS,induce HPMVEC migration
same,increase in F11 c-1 expression in morphine treated mice versus controls,F11 c-1,10 fold
same,agonist-induced HPMVEC proliferation,[2],induced proliferation
same,agonist-induced HPMVEC proliferation,[2]; listed as MS,stimulate HPMVEC proliferation
C=CCN1CC[C@]23c4c5ccc(O)c4O[C@H]2C(=O)CC[C@@]3(O)[C@H]1C5 [naloxone],effect on morphine induced angiogenesis,[6],did not exhibit a significant effect
platelet-derived growth factor [PDGF],agonist-stimulated RhoA activation,RhoA,"activation of the cytoskeletal regulatory small G-protein, RhoA"
same,agonist-induced HPMVEC migration,[1],induced
same,agonist-induced HPMVEC proliferation,[2],induced proliferation
same,agonist-induced serine/threonine phosphorylation of the mu opioid receptor,mu opioid receptor,induced serine/threonine phosphorylation
vascular endothelial growth factor [VEGF],agonist-stimulated RhoA activation,RhoA,"stimulate RhoA activation; also recorded: activation of the cytoskeletal regulatory small G-protein, RhoA"
same,agonist-induced tyrosine phosphorylation of VEGF receptor 2 (Flk-1),VEGF receptor 2 (Flk-1),induced
same,agonist-induced tyrosine phosphorylation of VEGF receptor 1 (Flt-1),VEGF receptor 1 (Flt-1),induced
same,agonist-induced HPMVEC migration,[1],induce HPMVEC migration; also recorded: induced
same,agonist-induced HPMVEC proliferation,[2],stimulate HPMVEC proliferation; also recorded: induced proliferation
same,agonist-induced serine/threonine phosphorylation of the mu opioid receptor,mu opioid receptor,induced serine/threonine phosphorylation
